Data on four compounds can be found in patent US8263776B2, “Inhibitors of c-Met protein kinase” (Vertex Pharmaceuticals Incorporated, priority 2009, dated 2012).

A word on the Ki: it is a measure of affinity in units of concentration, obtained from inhibition or displacement. The low end stands for higher affinity, the high end for lower affinity. The term IC50 denotes the concentration that gives 50% inhibition.

Assay [1] addresses c-Met (Homo sapiens, UniProt P08581). The experiment in a line: c-Met kinase inhibition assay (radiometric, 33P-ATP, polyE4Y substrate). It counts as biochemical. The settings on record: 0.5 nM c-Met, 35 μM ATP, competitive tight-binding fit. As to the method: The compounds of the invention were screened for their ability to inhibit c-Met kinase using a standard radiometric assay. Briefly, in this kinase assay the transfer of the terminal ^33P-phosphate in ^33P-ATP to substrate polyE4Y is interrogated. The assay was carried out in 96-well plates to a final volume of 100 μL per well containing 0.5 nM c-Met, 100 mM HEPES (pH 7.5), 10 mM MgCl2, 25 mM NaCl, 0.01% BSA, 1 mM DTT, 0.5 mg/mL polyE4Y, and 35 μM ATP. Accordingly, compounds of the invention were dissolved in DMSO to make 10 mM initial stock solutions. Serial dilutions in DMSO were then made to obtain the final solutions for the assay. A 1.5 μL aliquot of DMSO or inhibitor in DMSO was added to each well, followed by the addition of ^33P-ATP, and finally the addition of c-Met and polyE4Y (obtained from Sigma). After 20 min, the reaction was quenched with 50 μL of 30% trichloroacetic acid (TCA) containing 4 mM ATP. The reaction mixture was transferred to the 0.66 mm GF filter plates (Corning) and washed three times with 5% TCA. Following the addition of 50 μL of Ultimate Gold™ high efficiency scintillant (Packard Bioscience), the samples were counted in a Packard TopCount NXT Microplate Scintillation and Luminescence Counter (Packard BioScience). The Ki values, shown in Table 2, were calculated using Microsoft Excel Solver macros to fit the data to the kinetic model for competitive tight-binding inhibition.

The test system of assay [2] is Snu5-AP1-Luc-Pest cells (c-Met). The experiment in a line: Inhibition of c-Met activity in Snu5 gastric carcinoma cells (Snu5-AP1-Luc-Pest luciferase reporter). It counts as cell-based. The settings on record: Homo sapiens, SNU-5, 6 hours incubation, luciferase signal. The source says: Compounds of formula I were also screened for their ability to inhibit the Luciferase-induced signal in an engineered Snu5 cell line. Snu5 [obtained from American Type Culture Collection (Catalog number CRL-5973)] is a human gastric carcinoma known to overexpress c-Met, which is constitutively active. The cell line was transduced with the retrovirus, pCLPCX, which contains a genetic construct consisting of 6×AP 1 promoter response elements and a luciferase gene having a C-terminal PEST sequence (proteolytic signal from mouse ornithine decarboxylase, which reduces the half-life of the luciferase). The constitutively active c-Met activates cellular pathways (principally MAP kinase), resulting in AP-1-induced transcription of luciferase-PEST and translation into the final product, the activity of which is quantifiable as a chemiluminescent readout upon the addition of luciferin (Steady-Glo from Promega). Residual luminescence is strongly correlated to the inhibition of c-Met. A stable cell line was obtained by selecting the new cell line (Snu5-AP1-Luc-Pest) with puromycin. The cells were grown in complete media [Iscove's media (Invitrogen) containing 10% fetal bovine serum (FBS, Hyclone) and penicillin/gentamycin (Invitrogen)]. Compounds of the invention were dissolved in DMSO to make 10 mM initial stock solutions. Serial dilutions in DMSO were then made and transferred to complete medium to make a 10× solution. The Snu5-AP1-Luc-Pest cells were counted and diluted to 200,000-cells/mL solution. The cells (90 μL) were added to each well in a 96-well black with clear bottom plate (Costar). Then 10 μL of the 10× compound solution was added to the cells in triplicate. The plates were incubated in a 37° C./5% CO2 incubator. After 6 hours, 50 μL of the Steady-Glo reagent (Promega) was added to each well and placed on a plate shaker for 5 minutes to ensure that the cells were completely lysed. The plate was read on a 1450 Microbeta Liquid Scintillation and Luminescence Counter (Perkin-Elmer). The IC50 values, shown in Table 2, were calculated using a 4-parameter fit using the graphing software Prism (GraphPad).
Background: Reporter assays use an easily measured gene product as a stand-in for the process of interest.

Assay [3] addresses T1, PDE3A (Homo sapiens, UniProt Q14432).
T1 construct: purchased BPS Bioscience 60030
The experiment in a line: Inhibition of PDE3 (mobility-shift assay, LabChip 3000). Type of assay: biochemical. The settings on record: for IC50: PDE3A, iFL-cAMP substrate, 40 minute incubation; for activity against PDE3 compared with the respective enantiomer: statement in words in the summary. The source says: Phosphodiesterase-3 (PDE3) is one of a family of phosphodiesterases responsible for the regulation of cyclic nucleotide second messengers. PDE3 enzymes are involved in regulation of cardiac and vascular smooth muscle contractility. Agents that inhibit PDE3 were originally investigated for the treatment of heart failure but have unwanted arrhythmic side effects. See Dart R. C., Medical Toxicology, Edition 3, page 708; Lippincott 2004.
Compounds of formula I were screened for their ability to inhibit PDE3 in a mobility-shift assay that quantitates the conversion of a flourescent analog of cyclic AMP to a flourescent analog of AMP using a LabChip 3000 (Caliper Life Sciences, Hopkinton, Mass.). Accordingly, a 0.6 μL aliquot of the test compound dissolved in DMSO was placed in a well of a 384-well plate, followed by the addition of a 15 μL aliquot of 200 ng/mL PDE3A (BPS Bioscience, San Diego, Calif., Catalog No. 60030) in 50 mM HEPES buffer at pH 7.5, containing 5 mM MgCl2 and 0.001% Brij-35 (Buffer A). The enzyme and compound were incubated at room temperature for 15 minutes, followed by the addition of a 15 μL aliquot of 2 μM iFL-cAMP (Caliper Life Sciences, Catalog No. 760444) in Buffer A. Following a 40 minute incubation at room temperature, the reaction was quenched by the addition of a 45 μL aliquot of 100 mM HEPES buffer at pH 7.5, containing 30 mM EDTA, 0.015% Brij-35, and 0.1% CR-3 (Caliper Life Sciences). […] Percent conversion was determined using HTS Well Analyzer software (Caliper Life Sciences, v5, SP2). IC50 values were determined using non-linear regression with Prism (v5.0a, GraphPad Software, Inc., La Jolla, Calif.).

SMILES strings stand for the structures. Where only a bound is given, the exact number is not on record here.

c-Met, sequence (P08581 25-1390): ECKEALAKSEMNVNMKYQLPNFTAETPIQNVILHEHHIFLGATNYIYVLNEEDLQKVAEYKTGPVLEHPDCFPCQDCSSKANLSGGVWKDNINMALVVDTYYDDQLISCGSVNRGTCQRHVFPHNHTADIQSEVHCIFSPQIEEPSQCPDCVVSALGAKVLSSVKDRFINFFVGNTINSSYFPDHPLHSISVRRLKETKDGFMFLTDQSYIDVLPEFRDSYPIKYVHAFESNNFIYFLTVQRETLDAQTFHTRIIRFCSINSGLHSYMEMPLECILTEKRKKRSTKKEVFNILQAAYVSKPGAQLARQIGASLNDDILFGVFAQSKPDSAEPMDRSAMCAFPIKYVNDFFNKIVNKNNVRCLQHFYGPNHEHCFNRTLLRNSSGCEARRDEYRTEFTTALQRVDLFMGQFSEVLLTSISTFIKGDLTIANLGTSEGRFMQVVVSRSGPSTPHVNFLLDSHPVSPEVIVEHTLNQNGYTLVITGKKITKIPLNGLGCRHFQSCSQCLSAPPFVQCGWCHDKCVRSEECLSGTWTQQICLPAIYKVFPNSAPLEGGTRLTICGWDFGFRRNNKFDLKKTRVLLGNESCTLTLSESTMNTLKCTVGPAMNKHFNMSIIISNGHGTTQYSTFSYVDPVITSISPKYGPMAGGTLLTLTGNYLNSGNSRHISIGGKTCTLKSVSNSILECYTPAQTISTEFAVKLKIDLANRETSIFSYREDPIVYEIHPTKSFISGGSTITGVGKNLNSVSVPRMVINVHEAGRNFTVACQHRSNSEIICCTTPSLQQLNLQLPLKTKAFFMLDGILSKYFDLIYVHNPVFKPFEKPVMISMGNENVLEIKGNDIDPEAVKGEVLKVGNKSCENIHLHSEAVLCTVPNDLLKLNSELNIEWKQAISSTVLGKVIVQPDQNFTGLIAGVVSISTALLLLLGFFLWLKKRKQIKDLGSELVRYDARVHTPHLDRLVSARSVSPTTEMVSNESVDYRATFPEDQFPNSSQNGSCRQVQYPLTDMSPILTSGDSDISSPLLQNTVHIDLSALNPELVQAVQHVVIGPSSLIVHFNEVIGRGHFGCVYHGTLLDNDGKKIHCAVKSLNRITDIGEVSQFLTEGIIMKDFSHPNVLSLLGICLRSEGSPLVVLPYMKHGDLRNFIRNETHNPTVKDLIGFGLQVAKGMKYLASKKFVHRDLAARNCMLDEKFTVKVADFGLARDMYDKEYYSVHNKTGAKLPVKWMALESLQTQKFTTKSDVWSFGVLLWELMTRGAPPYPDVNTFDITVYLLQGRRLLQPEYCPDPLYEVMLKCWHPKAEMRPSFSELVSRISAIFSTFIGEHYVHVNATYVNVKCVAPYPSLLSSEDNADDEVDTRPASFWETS
T1 sequence (Q14432 669-1141 limits assumed): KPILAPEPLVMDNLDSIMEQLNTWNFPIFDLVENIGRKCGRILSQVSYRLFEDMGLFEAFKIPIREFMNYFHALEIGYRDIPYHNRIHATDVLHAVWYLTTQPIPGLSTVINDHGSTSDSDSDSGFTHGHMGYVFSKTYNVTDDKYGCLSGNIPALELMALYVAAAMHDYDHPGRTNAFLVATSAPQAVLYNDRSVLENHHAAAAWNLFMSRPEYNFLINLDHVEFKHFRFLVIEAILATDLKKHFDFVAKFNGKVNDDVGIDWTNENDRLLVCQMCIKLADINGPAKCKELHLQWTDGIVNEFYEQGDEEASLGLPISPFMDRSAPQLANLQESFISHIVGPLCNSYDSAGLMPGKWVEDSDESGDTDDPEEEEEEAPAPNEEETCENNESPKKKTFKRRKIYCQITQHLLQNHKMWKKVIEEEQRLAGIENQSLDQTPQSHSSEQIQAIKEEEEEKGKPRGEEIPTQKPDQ

`C[C@H](c1ccc2ncccc2c1)c1nnc2sc(-c3cnn(C)c3)nn12` [Compound 1, 6-((R)-1-(6-(1-methyl-1H-pyrazol-4-yl)-[1,2,4]triazolo[3,4-b][1,3,4]thiadiazol-3-yl)ethyl)quinoline] displayed an inhibition constant Ki in assay [1] below 0.3 µM. Moreover, in assay [2], the half-inhibitory concentration (IC50) was below 0.1 µM. In addition, in assay [3], the IC50 came out at 6.6 µM and the “activity against PDE3 compared with the respective enantiomer” value is given as “surprisingly less active against PDE3 than their respective enantiomers”.
On to `C[C@@H](c1ccc2ncccc2c1)c1nnc2sc(-c3cnn(C)c3)nn12` [Compound 1a], for which, in assay [1], the Ki is below 0.3 µM. For the same compound, the results for the IC50 in assay [2] and in assay [3] were below 0.1 µM and 0.76 µM, respectively.
As to `C[C@H](c1c(F)cc2ncccc2c1F)c1nnc2sc(-c3cnn(C)c3)nn12` [Compound 2, 5,7-difluoro-6-((R)-1-(6-(1-methyl-1H-pyrazol-4-yl)-[1,2,4]triazolo[3,4-b][1,3,4]thiadiazol-3-yl)ethyl)quinoline], in assay [1], the Ki was below 0.3 µM. Also, the IC50 was below 0.1 µM in assay [2] and 6.15 µM in assay [3]. For the same compound, the “activity against PDE3 compared with the respective enantiomer” value in assay [3] is given as “surprisingly less active against PDE3 than their respective enantiomers”.
As for `C[C@@H](c1c(F)cc2ncccc2c1F)c1nnc2sc(-c3cnn(C)c3)nn12` [Compound 2a], in assay [1], the Ki was below 0.3 µM. The IC50 in assay [2] is below 0.1 µM; in assay [3] it was 0.15 µM.
